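Step 1: Grow cells in 96-well plates. Step 2: Expose to compound for 48 hours at 5 concentrations. Step 3: Interpolate endpoints linearly; if unreached, use highest concentration. GI50 is the concentration that inhibits growth by half.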 The source made the active and inactive calls. Cut-off read from the data, not from the text of the source: active = GI50 up to about 1.1 µM and inactive = higher.
What was measured:
Experiment in all cases: inhibition of tumour cell growth, NCI panel, 48 h
786-0 = test system: 786-0
A498 = test system: A498
A549 = test system: A549
ACHN = test system: ACHN
BT-549 = test system: BT-549
CAKI-1 = test system: CAKI-1
CCRF-CEM = test system: CCRF-CEM
COLO 205 = test system: COLO 205
DU-145 = test system: DU-145
EKVX = test system: EKVX
HCC 2998 = test system: HCC 2998
HCT-116 = test system: HCT-116
HCT-15 = test system: HCT-15
HL-60 = test system: HL-60
HOP-62 = test system: HOP-62
HOP-92 = test system: HOP-92
HT-29 = test system: HT-29
Hs-578T = test system: Hs-578T
IGROV-1 = test system: IGROV-1
K562 = test system: K562
KM12 = test system: KM12
LOX IMVI = test system: LOX IMVI
M14 = test system: M14
MCF7 = test system: MCF7
MDA-MB-231 = test system: MDA-MB-231
MDA-MB-435 = test system: MDA-MB-435
MDA-N = test system: MDA-N
MOLT-4 = test system: MOLT-4
Malme-3M = test system: Malme-3M
NCI-H226 = test system: NCI-H226
NCI-H23 = test system: NCI-H23
NCI-H460 = test system: NCI-H460
NCI-H522 = test system: NCI-H522
NCI/ADR-RES = test system: NCI/ADR-RES
OVCAR-3 = test system: OVCAR-3
OVCAR-4 = test system: OVCAR-4
OVCAR-5 = test system: OVCAR-5
OVCAR-8 = test system: OVCAR-8
PC-3 = test system: PC-3
RPMI-8226 = test system: RPMI-8226
RXF 393 = test system: RXF 393
SF-268 = test system: SF-268
SF-295 = test system: SF-295
SF-539 = test system: SF-539
SK-MEL-28 = test system: SK-MEL-28
SK-MEL-2 = test system: SK-MEL-2
SK-MEL-5 = test system: SK-MEL-5
SK-OV-3 = test system: SK-OV-3
SN12C = test system: SN12C
SNB-19 = test system: SNB-19
SNB-75 = test system: SNB-75
SR = test system: SR
SW-620 = test system: SW-620
T47D = test system: T47D
TK-10 = test system: TK-10
U-251 = test system: U-251
UACC-257 = test system: UACC-257
UACC-62 = test system: UACC-62
UO-31 = test system: UO-31

In the case of c1ccc(C2=NC3OC2c2ccccc23)cc1 (stereo unspecified), the GI50 (786-0) is reported as > 10 µM (inactive), the GI50 (A498) is reported as > 10 µM (inactive) and the GI50 (A549) is reported as > 10 µM (inactive). For the same compound, the GI50 (ACHN) was > 10 µM (inactive), the GI50 (BT-549) was > 10 µM (inactive) and the GI50 (CAKI-1) was > 10 µM (inactive). For the same compound, the GI50 (CCRF-CEM) was > 10 µM (inactive), the GI50 (COLO 205) was > 10 µM (inactive) and the GI50 (DU-145) was > 10 µM (inactive). For the same compound, the GI50 (EKVX) was > 10 µM (inactive), the GI50 (HCC 2998) was > 10 µM (inactive) and the GI50 (HCT-116) was > 10 µM (inactive). The GI50 (HCT-15) was over 10 µM, the GI50 (HL-60) was > 10 µM (inactive) and the GI50 (HOP-62) was > 10 µM (inactive). For the same compound, the GI50 (HOP-92) was > 10 µM (inactive), the GI50 (HT-29) was > 10 µM (inactive) and the GI50 (Hs-578T) was > 10 µM (inactive). The GI50 (IGROV-1) was > 10 µM (inactive), the GI50 (K562) was > 10 µM (inactive) and the GI50 (KM12) was > 10 µM (inactive). The GI50 (LOX IMVI) was > 10 µM (inactive), the GI50 (M14) was > 10 µM (inactive) and the GI50 (MCF7) was 3.15 µM (inactive). For the same compound, the GI50 (MDA-MB-231) was > 10 µM (inactive), the GI50 (MDA-MB-435) was > 10 µM (inactive) and the GI50 (MDA-N) was > 10 µM (inactive). For the same compound, the GI50 (MOLT-4) was > 10 µM (inactive), the GI50 (Malme-3M) was > 10 µM (inactive) and the GI50 (NCI-H226) was > 10 µM (inactive). For the same compound, the GI50 (NCI-H23) was > 10 µM (inactive), the GI50 (NCI-H460) was > 10 µM (inactive) and the GI50 (NCI-H522) was > 10 µM (inactive). The GI50 (NCI/ADR-RES) was > 10 µM (inactive), the GI50 (OVCAR-3) was > 10 µM (inactive) and the GI50 (OVCAR-4) was > 10 µM (inactive). For the same compound, the GI50 (OVCAR-5) was > 10 µM (inactive), the GI50 (OVCAR-8) was > 10 µM (inactive) and the GI50 (PC-3) was > 10 µM (inactive). The GI50 (RPMI-8226) was > 10 µM (inactive), the GI50 (RXF 393) was > 10 µM (inactive) and the GI50 (SF-268) was > 10 µM (inactive). The GI50 (SF-295) was > 10 µM (inactive), the GI50 (SF-539) was > 10 µM (inactive) and the GI50 (SK-MEL-28) was > 10 µM (inactive). The GI50 (SK-MEL-2) was > 10 µM (inactive), the GI50 (SK-MEL-5) was > 10 µM (inactive) and the GI50 (SK-OV-3) was > 10 µM (inactive). The GI50 (SN12C) was > 10 µM (inactive), the GI50 (SNB-19) was > 10 µM (inactive) and the GI50 (SNB-75) was > 10 µM (inactive). For the same compound, the GI50 (SR) was > 10 µM (inactive), the GI50 (SW-620) was > 10 µM (inactive) and the GI50 (T47D) was > 10 µM (inactive). The GI50 (TK-10) was > 10 µM (inactive), the GI50 (U-251) was > 10 µM (inactive) and the GI50 (UACC-257) was > 10 µM (inactive). The GI50 (UACC-62) was > 10 µM (inactive).
For COC(=O)/C=C(/C(=O)OC)c1c(C)c(C)c2c(C)cc(C)cc(C)c1-2, the GI50 (786-0) was > 100 µM (inactive), the GI50 (A498) was 97.9 µM (inactive) and the GI50 (A549) was 20.6 µM (inactive). The GI50 (ACHN) was 20 µM (inactive), the GI50 (BT-549) was 22.4 µM (inactive) and the GI50 (CAKI-1) was 27.4 µM (inactive). The GI50 (CCRF-CEM) was > 100 µM (inactive), the GI50 (COLO 205) was 29.4 µM (inactive) and the GI50 (DU-145) was 36.9 µM (inactive). For the same compound, the GI50 (EKVX) was 59.7 µM (inactive), the GI50 (HCC 2998) was 21.3 µM (inactive) and the GI50 (HCT-116) was 17.4 µM (inactive). The GI50 (HCT-15) was 8.85 µM, the GI50 (HL-60) was > 100 µM (inactive) and the GI50 (HOP-62) was 23 µM (inactive). For the same compound, the GI50 (HOP-92) was 21.2 µM (inactive), the GI50 (HT-29) was 11.6 µM (inactive) and the GI50 (Hs-578T) was 8.99 µM (inactive). The GI50 (IGROV-1) was 37.9 µM (inactive), the GI50 (K562) was > 100 µM (inactive) and the GI50 (KM12) was 32.7 µM (inactive). For the same compound, the GI50 (LOX IMVI) was 28.7 µM (inactive), the GI50 (M14) was 8.93 µM (inactive) and the GI50 (MCF7) was 25.2 µM (inactive). The GI50 (MDA-MB-231) was 18.1 µM (inactive), the GI50 (MDA-MB-435) was 4.6 µM (inactive) and the GI50 (MDA-N) was 2.24 µM (inactive). For the same compound, the GI50 (MOLT-4) was > 100 µM (inactive), the GI50 (Malme-3M) was 28.4 µM (inactive) and the GI50 (NCI-H226) was 13.3 µM (inactive). For the same compound, the GI50 (NCI-H23) was 23.8 µM (inactive), the GI50 (NCI-H460) was 29 µM (inactive) and the GI50 (NCI-H522) was 12.2 µM (inactive). The GI50 (NCI/ADR-RES) was 15.2 µM (inactive), the GI50 (OVCAR-3) was 22.1 µM (inactive) and the GI50 (OVCAR-4) was 76.2 µM (inactive). For the same compound, the GI50 (OVCAR-5) was 19.1 µM (inactive), the GI50 (OVCAR-8) was 46.3 µM (inactive) and the GI50 (PC-3) was 28.8 µM (inactive). The GI50 (RPMI-8226) was > 100 µM (inactive), the GI50 (RXF 393) was 26.9 µM (inactive) and the GI50 (SF-268) was > 100 µM (inactive). The GI50 (SF-295) was 20.9 µM (inactive), the GI50 (SF-539) was 29.4 µM (inactive) and the GI50 (SK-MEL-28) was 33.1 µM (inactive). The GI50 (SK-MEL-2) was 26.2 µM (inactive), the GI50 (SK-MEL-5) was 12.6 µM (inactive) and the GI50 (SK-OV-3) was 18.2 µM (inactive). For the same compound, the GI50 (SN12C) was 38.8 µM (inactive), the GI50 (SNB-19) was 58.7 µM (inactive) and the GI50 (SR) was 45.5 µM (inactive). For the same compound, the GI50 (SW-620) was 17.1 µM (inactive), the GI50 (T47D) was 80.9 µM (inactive) and the GI50 (TK-10) was 55.1 µM (inactive). The GI50 (U-251) was 26.9 µM (inactive), the GI50 (UACC-257) was 22 µM (inactive) and the GI50 (UACC-62) was 8.39 µM (inactive). For the same compound, the GI50 (UO-31) was 13.6 µM (inactive).
